Where two headings read alike, the source gives them in different places.
Assays:
[1] = tested on: Proguanil resistant attB Pf Dd2; test: P. falciparum (Dd2 strain) asexual blood stage assay, proguanil resistant attB; format: cell-based, Plasmodium falciparum; settings: for IC50: Plasmodium falciparum, DD2, 72 h, read-out: Proguanil resistant attB Pf Dd2 IC50 (uM)
Description: (§1) Assays using human blood cells infected with Plasmodium falciparum: (Pf) parasites, both wild-type strains as well as mutant drug-resistant strains, were performed as described below. Wild-type strains used were aatB Pf (Dd2 strain) and Pf (Dd2 strain). Mutant strains used were proguanil resistant attb Pf (Dd2 strain), dihydroorotate dehydrogenase (DHODH) deficient aatB Pf (Dd2 strain), and DHODH deficient and proguanil resistant Pf (Dd2 strain).
(§2) 2008 Jul. 1; 105(26):9059-64.
(§3) Parasitemia was estimated by blood smear Giemsa stain and visual inspection under the microscopic.
(§4) The screening plate was prepared by centrifuging for parasite culture for 5 min at 800×g at RT (low brake) and removing supernatant. A parasite suspension was prepared with 0.3% parasitemia and 4% hematocrit in screening medium (SM). The suspension was gassed with a gas mixture of 1% oxygen, 3% carbon dioxide, 96% nitrogen and stored at 37° C. for until ready to use. 50 nl of 1 mM compound in DMSO was prespotted into 1536 well plates (final drug conc. of 12.5 μM, final DMSO conc. of 0.625%) with the acoustic dispenser ATS. Controls were Artemisinin, Chloroquine, and DMSO. 8 μl of SM was dispensed into 1,536-well, black, clear-bottom plates (Greiner) using the MultiFlo™ Microplate dispenser (BioTek) (final parasitemia of 0.3% and 2.5% hematocrit in SM). The plates were incubated at 37° C. for 72 h with water-soaked tissue in a closed ziploc bag gassed with 1% oxygen, 3% carbon dioxide, 96% nitrogen.
(§5) 2 μl of detection reagent mixture (10×SYBR Green I (Invitrogen) in Lysis buffer (20 mM Tris/HCl, 5 mM EDTA, 0.16% Saponin wt/vol, 1.6% Triton X vol/vol) was added. Assay plates were read from the bottom by using the 2104 EnVision® Multilabel Reader (PerkinElmer) (485 nm excitation, 530 nm emission). The results are presented in Table 5 below.

HepG2-A16-CD81EGFP cells = test: HepG2 cytotoxicity bioluminescence assay (CellTiter-Glo); format: cell-based, human; settings: for concentration below which no toxicity was seen: HepG2-A16-CD81EGFP, 48 h, CellTiter-Glo
Description: Compounds 66 and 177 were tested for viability of liver schizonts of the murine Plasmodium berghei species transformed with Luciferase by using the following assay adapted and modified from S. Swann et al. (2016) High-Throughput Luciferase-Based Assay for the Discovery of Therapeutics That Prevent Malaria. ACS Infectious Diseases 2: 4. 281-293 (2016), but with the removal of the infection methods. The CellTiter-Glo® ° (Promega Corp., Madison WI) is a method to determine the number of viable cells in culture based on quantitation of the ATP present, which signals the presence of metabolically active cells.
HepG2-A16-CD81EGFP cells were stably transformed to express a GFP-CD81 fusion protein (S. Yalaoui et al., Hepatocyte permissiveness to Plasmodium infection is conveyed by a short and structurally conserved region of the CD81 large extracellular domain. PLoS Pathog. 4, e1000010 (2008); O. Silvie et al, Hepatocyte CD81 is required for Plasmodium falciparum and Plasmodium yoelii sporozoite infectivity. Nat. Med. 9, 93 (2003)). The transformed HepG2-A16-CD81EGFP cells were cultured at 37° C. in 5% CO2 in DMEM (Invitrogen, Carlsbad, USA) supplemented with 10% FCS, 0.29 mg/ml glutamine, 100 units penicillin and 100 μg/ml streptomycin.
[…] HepG2-A16-CD81EGFP cells in 5 μl of medium (2×10^5 cells/ml, 5% FBS, 5× Pen/Strep/Glu) were seeded in 1536-well plates (Greiner BioOne white solid bottom custom GNF mold) 20-26 hours prior to the actual infection. 24 hours prior to infection, 50 nl of compound in DMSO (0.5% final DMSO concentration per well) was transferred with acoustic transfer machine (ATS) into the assay plates (10 μM-50 μM final concentration). Puromycin (25 μM) and 0.5% DMSO were used as positive and negative controls, respectively.
5 μl of the HepG2 screening media were dispensed into each well of the 1536 plate format using the BioTek MultiFlo FX Multi-Mode Cell Dispenser and a 5 μl BioTek Liquid Handling MicroFlo cassette. This step was to maintain equal concentrations of compounds with the Pb-Luc infected plates that were performed in parallel with this assay (P. berghei-Luciferase Liver Stage Bioluminescence Assay). After incubation at 37° C. for 48 hours, the cell viability was quantified by bioluminescence measurement. […] Puromycin and naive wells were used as controls on each plate. The compounds were screened in a 12 point serial dilution to determine their IC50 values.
Media was removed by spinning the inverted plates at 150 RCF for 1 minute. CellTiter-Glo® reagent (Promega Corp., Madison WI) was prepared following manufacturer instructions and diluted with DI H2O 1:1 (final solution is 50% CellTiterGlo® reagent in DI H2O). […] Immediately after addition of the CellTiter-Glo® reagent, the plates were read by the Envision Multilabel Reader (PerkinElmer).

Wild-Type attB Pf Dd2 = test: P. falciparum (Dd2 strain) asexual blood stage assay, wild-type attB; format: cell-based; settings: Plasmodium falciparum
Description: as §1, §2, §3, §4, §5

[2] = tested on: DHODH deficient Pf Dd2 mutant; test: P. falciparum (Dd2 strain) asexual blood stage assay, DHODH deficient mutant; format: cell-based, Plasmodium falciparum; settings: for IC50: Plasmodium falciparum, DD2, 72 h, read-out: DHODH deficient Pf Dd2 mutant IC50 (uM)
Description: as §1, §2, §3, §4, §5

[3] = DD2, 72 h, read-out: Wild-Type attB Pf Dd2 IC50 (uM)
[4] = DD2, read-out: IC50 against wild-type attB Pf

Row | SMILES | IC50 [1] [µM] | cell-based toxicity, in words (HepG2-A16-CD81EGFP cells) | concentration below which no toxicity was seen (HepG2-A16-CD81EGFP cells) [µM] | IC50 (Wild-Type attB Pf Dd2; [3]) [µM] | IC50 (Wild-Type attB Pf Dd2; [4]) [µM] | IC50 [2] [µM] | potency against a proguanil resistant attB mutant strain ([1]; in words) | potency against a dihydroorotate dehydrogenase (DHODH) deficient mutant ([2]; in words)
1 | O=C(Nc1ccc(F)c(F)c1)c1c2c(nc3ccccc13)CCN(Cc1ccccc1)C2 [Compound 66, 2-Benzyl-N-(3,4-difluorophenyl)-1,2,3,4-tetrahydrobenzo[b][1,6]naphthyridine-10-carboxamide] | 0.0699 | acceptable levels of cell-based toxicity | ≥ 50 | 0.0565 | 0.0556 | 0.0301 | – | –
2 | O=C1c2c3c(nc4ccccc24)CCN(Cc2ccccc2)C3N1c1ccc(F)c(F)c1 (centres unmarked) [Compound 177, 3-Benzyl-2-(3,4-difluorophenyl)-2a,3,4,5-tetrahydrobenzo[b]pyrrolo[4,3,2-de][1,6]naphthyridin-1(2H)-one] | 0.0113 | acceptable levels of cell-based toxicity | ≥ 12.5 | 0.00895 | 0.00895 | 0.006 | undiminished potency | undiminished potency

From US12370183B2, “Compositions and methods for treating malaria” (Rutgers, The State University of New Jersey, priority 2020, dated 2025)
